# Test results as given in publication PMC10712727, “Safety, Tolerability, and Pharmacokinetics of Senaparib, a Novel PARP1/2 Inhibitor, in Chinese Patients With Advanced Solid Tumors: A Phase I Trial” (The Oncologist, 2023).
# Tested on: patients with advanced solid tumors
# Test: Safety: treatment-emergent and senaparib-related adverse events graded per NCI CTCAE v4.03
# Format: in vivo
# Method: This phase I, open-label, multicenter, dose-escalation, and dose-expansion study was conducted at three national clinical institutions in China. […] At baseline, all patients enrolled in the dose-escalation phase had to have at least one evaluable lesion, and those in the dose-expansion period had to have at least one measurable lesion, according to Response Evaluation Criteria in Solid Tumors version 1.1 (RECIST v1.1).[16] Entry to the dose-expansion cohort required the presence of a BRCA mutation, with the exception of patients with ovarian carcinoma, fallopian tube carcinoma, and primary peritoneal carcinoma. Full study eligibility criteria are provided in Supplementary Table S1.
# Dose escalation was conducted using a modified Fibonacci 3 + 3 method (Supplementary Fig. S1).[17] Patients were administered oral senaparib from a planned starting dose of 2 mg once daily (QD), with preliminary dose escalation to 120 mg via nine dose groups, in order of their entry into the study. At a given dose level, each patient received a single dose of senaparib followed by a 7-day washout period. They then entered a continuous dosing period to confirm the safety and PK profile, in which they received senaparib QD from day 1 to day 21 of each 3-week cycle. Progression to the next higher dose required approval from the Data Safety Monitoring Committee (DSMC) upon review of the safety and PK data of the previous dose. A 50-mg twice-daily (BID) dosing group was added (planned enrollment, n = 6 patients) based on a DSMC review of the safety, PK, and efficacy analysis of the completed QD dose groups in the phase I clinical trial of senaparib dose escalation in Australia (NCT03507543), which commenced prior to the start of this trial.
# The dose-expansion period included 3 populations: dose groups in which at least one patient achieved complete response (CR) or partial response (PR) per RECIST v1.1[16] and 1 dose group higher (evaluated for safety), as well as the dose group at the maximum tolerated dose (MTD)/recommended phase II dose (RP2D). Each of these groups included those patients in the respective dose-escalation group plus a planned additional 10 patients (approximately 20 patients in the MTD/RP2D group) with BRCA^mut+ solid tumors (ovarian, breast, or prostate cancer were preferred, and ovarian cancer could be BRCA wild type). Patients received senaparib monotherapy orally QD or BID (50-mg dose only) over each 3-week cycle until disease progression or unacceptable toxicity.
# DLTs were predefined toxicities (Supplementary Table S2) recorded over the 7 days following the single-dose administration of senaparib and during the first treatment cycle (day 1-day 21) for each dose group in the dose-escalation period only. The MTD was defined as the maximum dose at which ≤1/6 patients experienced a DLT. Senaparib PK parameters were derived from blood samples collected from patients after the single administration, and at regular intervals during the first cycle of the dose-escalation and dose-expansion periods. Plasma concentrations of senaparib were determined using high-performance liquid chromatography-tandem mass spectrometry. Tumor response was assessed every 6 weeks per RECIST v1.1,[16] recording objective response rate (ORR), disease control rate (DCR), duration of response (DOR), and progression-free survival (PFS) by dose level for all patients and for those harboring BRCA^mut+ tumors.
smiles,measurement,setting,value
O=C(c1cc(Cn2c(=O)[nH]c(=O)c3c(F)cccc32)ccc1F)N1CCN(c2ncccn2)CC1 [Senaparib],"Appetite decreased TRAE, All",80 mg QD n = 9,3 (33.3) n (%)
same,"Appetite decreased TRAE, Gr≥3",80 mg QD n = 9,0 n (%)
same,"Asthenia TRAE, All",80 mg QD n = 9,2 (22.2) n (%)
same,"Asthenia TRAE, Gr≥3",80 mg QD n = 9,0 n (%)
same,"Blood bilirubin increased TRAE, All",80 mg QD n = 9,2 (22.2) n (%)
same,"Blood bilirubin increased TRAE, Gr≥3",80 mg QD n = 9,0 n (%)
same,"Blood creatinine increased TRAE, All",80 mg QD n = 9,2 (22.2) n (%)
same,"Blood creatinine increased TRAE, Gr≥3",80 mg QD n = 9,0 n (%)
same,"Hypokalemia TRAE, All",80 mg QD n = 9,3 (33.3) n (%)
same,"Nausea TRAE, All",80 mg QD n = 9,4 (44.4) n (%)
same,"Nausea TRAE, Gr≥3",80 mg QD n = 9,0 n (%)
same,"Neutrophil count decreased TRAE, All",80 mg QD n = 9,4 (44.4) n (%)
same,"Neutrophil count decreased TRAE, Gr≥3",80 mg QD n = 9,1 (11.1) n (%)
same,"Platelet count decreased TRAE, All",80 mg QD n = 9,4 (44.4) n (%)
same,"Platelet count decreased TRAE, Gr≥3",80 mg QD n = 9,2 (22.2) n (%)
same,"SAEs, events",80 mg QD n = 9,5 n ev
same,"SAEs, patients",80 mg QD n = 9,5 (55.6) n (%)
same,"TEAE Grade ≥3, events",80 mg QD n = 9,12 n ev
same,"TEAE Grade ≥3, patients",80 mg QD n = 9,6 (66.7) n (%)
same,"TEAEs leading to death, events",80 mg QD n = 9,1 n ev
same,"TEAEs leading to death, patients",80 mg QD n = 9,1 (11.1) n (%)
same,"TEAEs leading to dose discontinuation, events",80 mg QD n = 9,4 n ev
same,"TEAEs leading to dose discontinuation, patients",80 mg QD n = 9,1 (11.1) n (%)
same,"TEAEs leading to dose interruption, events",80 mg QD n = 9,9 n ev
same,"TEAEs leading to dose interruption, patients",80 mg QD n = 9,4 (44.4) n (%)
same,"TEAEs leading to dose reduction, events",80 mg QD n = 9,3 n ev
same,"TEAEs leading to dose reduction, patients",80 mg QD n = 9,3 (33.3) n (%)
same,"TRAEs Grade ≥3, events",80 mg QD n = 9,10 n ev
same,"TRAEs Grade ≥3, patients",80 mg QD n = 9,5 (55.6) n (%)
same,"TRAEs, events",80 mg QD n = 9,109 n ev
same,"TRAEs, patients",80 mg QD n = 9,9 (100) n (%)
same,"Vomiting TRAE, All",80 mg QD n = 9,2 (22.2) n (%)
same,"Vomiting TRAE, Gr≥3",80 mg QD n = 9,1 (11.1) n (%)
same,"WBC decreased TRAE, All",80 mg QD n = 9,5 (55.6) n (%)
same,"WBC decreased TRAE, Gr≥3",80 mg QD n = 9,1 (11.1) n (%)
same,"ALT increased TRAE, All",100 mg QD n = 20,5 (25.0) n (%)
same,"ALT increased TRAE, Gr≥3",100 mg QD n = 20,0 n (%)
same,"AST increased TRAE, All",100 mg QD n = 20,4 (20.0) n (%)
same,"AST increased TRAE, Gr≥3",100 mg QD n = 20,1 (5.0) n (%)
same,"Anemia TRAE, All",100 mg QD n = 20,11 (55.0) n (%)
same,"Anemia TRAE, Gr≥3",100 mg QD n = 20,4 (20.0) n (%)
same,"Any TEAE, All",100 mg QD n = 20,20 (100) n (%)
same,"Any TEAE, Gr≥3",100 mg QD n = 20,7 (35.0) n (%)
same,"Any TEAE, events",100 mg QD n = 20,158 n ev
same,"Any TEAE, patients",100 mg QD n = 20,20 (100) n (%)
same,"Any TRAE, All",100 mg QD n = 20,20 (100) n (%)
same,"Any TRAE, Gr≥3",100 mg QD n = 20,7 (35.0) n (%)
same,"Appetite decreased TRAE, All",100 mg QD n = 20,5 (25.0) n (%)
same,"Appetite decreased TRAE, Gr≥3",100 mg QD n = 20,0 n (%)
same,"Asthenia TRAE, All",100 mg QD n = 20,5 (25.0) n (%)
same,"Asthenia TRAE, Gr≥3",100 mg QD n = 20,0 n (%)
same,"Blood bilirubin increased TRAE, All",100 mg QD n = 20,3 (15.0) n (%)
same,"Blood bilirubin increased TRAE, Gr≥3",100 mg QD n = 20,0 n (%)
same,"Blood creatinine increased TRAE, All",100 mg QD n = 20,2 (10.0) n (%)
same,"Blood creatinine increased TRAE, Gr≥3",100 mg QD n = 20,0 n (%)
same,"Hypokalemia TRAE, All",100 mg QD n = 20,0 n (%)
same,"Hypokalemia TRAE, Gr≥3",100 mg QD n = 20,0 n (%)
same,"Nausea TRAE, All",100 mg QD n = 20,4 (20.0) n (%)
same,"Nausea TRAE, Gr≥3",100 mg QD n = 20,0 n (%)
same,"Neutrophil count decreased TRAE, All",100 mg QD n = 20,5 (25.0) n (%)
same,"Neutrophil count decreased TRAE, Gr≥3",100 mg QD n = 20,2 (10.0) n (%)
same,"Platelet count decreased TRAE, All",100 mg QD n = 20,6 (30.0) n (%)
same,"Platelet count decreased TRAE, Gr≥3",100 mg QD n = 20,1 (5.0) n (%)
same,"SAEs, events",100 mg QD n = 20,1 n ev
same,"SAEs, patients",100 mg QD n = 20,1 (5.0) n (%)
same,"TEAE Grade ≥3, events",100 mg QD n = 20,9 n ev
same,"TEAE Grade ≥3, patients",100 mg QD n = 20,7 (35.0) n (%)
same,"TEAEs leading to death, events",100 mg QD n = 20,0 n ev
same,"TEAEs leading to death, patients",100 mg QD n = 20,0 n (%)
same,"TEAEs leading to dose discontinuation, events",100 mg QD n = 20,1 n ev
same,"TEAEs leading to dose discontinuation, patients",100 mg QD n = 20,1 (5.0) n (%)
same,"TEAEs leading to dose interruption, events",100 mg QD n = 20,8 n ev
same,"TEAEs leading to dose interruption, patients",100 mg QD n = 20,6 (30.0) n (%)
same,"TEAEs leading to dose reduction, events",100 mg QD n = 20,6 n ev
same,"TEAEs leading to dose reduction, patients",100 mg QD n = 20,4 (20.0) n (%)
same,"TRAEs Grade ≥3, events",100 mg QD n = 20,9 n ev
same,"TRAEs Grade ≥3, patients",100 mg QD n = 20,7 (35.0) n (%)
same,"TRAEs, events",100 mg QD n = 20,144 n ev
same,"TRAEs, patients",100 mg QD n = 20,20 (100) n (%)
same,"Vomiting TRAE, All",100 mg QD n = 20,5 (25.0) n (%)
same,"Vomiting TRAE, Gr≥3",100 mg QD n = 20,0 n (%)
same,"WBC decreased TRAE, All",100 mg QD n = 20,9 (45.0) n (%)
same,"WBC decreased TRAE, Gr≥3",100 mg QD n = 20,1 (5.0) n (%)
same,"ALT increased TRAE, All",120 mg QD n = 4,2 (50.0) n (%)
same,"ALT increased TRAE, Gr≥3",120 mg QD n = 4,1 (25.0) n (%)
same,"AST increased TRAE, All",120 mg QD n = 4,2 (50.0) n (%)
same,"AST increased TRAE, Gr≥3",120 mg QD n = 4,0 n (%)
same,"Anemia TRAE, All",120 mg QD n = 4,3 (75.0) n (%)
same,"Anemia TRAE, Gr≥3",120 mg QD n = 4,1 (25.0) n (%)
same,"Any TEAE, All",120 mg QD n = 4,4 (100) n (%)
same,"Any TEAE, Gr≥3",120 mg QD n = 4,3 (75.0) n (%)
same,"Any TEAE, events",120 mg QD n = 4,52 n ev
same,"Any TEAE, patients",120 mg QD n = 4,4 (100) n (%)
same,"Any TRAE, All",120 mg QD n = 4,4 (100) n (%)
same,"Any TRAE, Gr≥3",120 mg QD n = 4,3 (75.0) n (%)
same,"Appetite decreased TRAE, All",120 mg QD n = 4,1 (25.0) n (%)
same,"Appetite decreased TRAE, Gr≥3",120 mg QD n = 4,0 n (%)
same,"Asthenia TRAE, All",120 mg QD n = 4,2 (50.0) n (%)
same,"Asthenia TRAE, Gr≥3",120 mg QD n = 4,0 n (%)
same,"Blood bilirubin increased TRAE, All",120 mg QD n = 4,2 (50.0) n (%)
same,"Blood bilirubin increased TRAE, Gr≥3",120 mg QD n = 4,1 (25.0) n (%)
same,"Blood creatinine increased TRAE, All",120 mg QD n = 4,1 (25.0) n (%)
same,"Blood creatinine increased TRAE, Gr≥3",120 mg QD n = 4,0 n (%)
same,"Hypokalemia TRAE, All",120 mg QD n = 4,0 n (%)
same,"Hypokalemia TRAE, Gr≥3",120 mg QD n = 4,0 n (%)
same,"Nausea TRAE, All",120 mg QD n = 4,1 (25.0) n (%)
same,"Nausea TRAE, Gr≥3",120 mg QD n = 4,0 n (%)
same,"Neutrophil count decreased TRAE, All",120 mg QD n = 4,1 (25.0) n (%)
same,"Neutrophil count decreased TRAE, Gr≥3",120 mg QD n = 4,0 n (%)
same,"Platelet count decreased TRAE, All",120 mg QD n = 4,1 (25.0) n (%)
same,"Platelet count decreased TRAE, Gr≥3",120 mg QD n = 4,0 n (%)
same,"SAEs, events",120 mg QD n = 4,1 n ev
same,"SAEs, patients",120 mg QD n = 4,1 (25.0) n (%)
same,"TEAE Grade ≥3, events",120 mg QD n = 4,6 n ev
same,"TEAE Grade ≥3, patients",120 mg QD n = 4,3 (75.0) n (%)
same,"TEAEs leading to death, events",120 mg QD n = 4,0 n ev
